In patent US20160106102A1, “KNOWN AND NEW HETEROCYCLIC COMPOUNDS AS PEST CONTROL AGENTS” (BAYER CROPSCIENCE AKTIENGESELLSCHAFT, priority 2013, published 2016):
Like-named read-outs stand apart in the source and are kept apart here. Blank lines part the entries; values can stand above or below the compound they belong to.

How the values were obtained:
[1] = tested on: Myzus persicae; assay: Myzus persicae - spray test; assay type: in vivo; conditions: application rate of 500 g/ha, after 6 days, sprayed Chinese cabbage leaf discs infested by all stages, 100% = all aphids killed
In short: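 Chinese cabbage leaf discs infested with all stages of green peach aphid sprayed with compound in acetone/DMF formulation with alkylaryl polyglycol ether emulsifier, diluted in emulsifier-containing water. Efficacy (% aphids killed) assessed after 6 days.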

[2] = tested on: Myzus persicae; assay: Myzus persicae - sachet test; assay type: in vivo; conditions: 100% = all animals killed
In short: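 Active ingredient dissolved with 2% N-methylpyrrolidone and 2% diacetone alcohol, diluted in water, then pipetted into nutrient medium. Plate sealed and paired with a plate carrying green peach aphids. Kill in % scored after the set time (100% = all dead, 0% = none dead).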

[3] = log P determination by LC-MS in the acidic range; assay type: physicochemical; conditions: for log P (acid): LC-MS in the acidic range
Source text: The LC-MS determination in the acidic range is effected at pH 2.7 using 0.1% aqueous formic acid and acetonitrile (contains 0.1% formic acid) as eluents, linear gradient from 10% acetonitrile to 95% acetonitrile. Alternatively, the determination is effected in the acidic range at pH 2.3 using 0.1% aqueous phosphoric acid and acetonitrile as eluents; linear gradient from 10% acetonitrile to 95% acetonitrile.

[4] = application rate of 6 ppm in nutrient medium
[5] = application rate of 30 ppm in nutrient medium

SMILES: O=C(Nc1ccn(-c2ncc(C(F)(F)F)cc2Cl)n1)c1cccnc1 [Compound I-1-63]
efficacy in % [1]: 100%
efficacy (kill in %) [2, 5]: 100%
log P (acid) [3]: 2.18

SMILES: Cc1cc(NC(=O)c2cccnc2)nn1Cc1ncccc1C#N [Compound I-1-20]
efficacy in % [1]: 90%
efficacy (kill in %) [2, 4]: 100%
efficacy (kill in %) [2, 5]: 100%
log P (acid) [3]: 1.08

SMILES: Cc1cc(NC(=O)c2cccnc2)n[nH]1 [Compound I-1-17, N-(5-Methyl-1H-pyrazol-3-yl)nicotinamide]
pest or weed control at 500 g/ha ([1]; Myzus persicae, foliar, 144 h, read-out: efficacy in %): 90%
pest or weed control at 6 ppm ([2]; Myzus persicae, application rate of 6 ppm in nutrient medium, read-out: efficacy (kill in %)): 100%
pest or weed control at 30 ppm ([2]; Myzus persicae, application rate of 30 ppm in nutrient medium, read-out: efficacy (kill in %)): 100%
chromatographic logP ([3]; pH 2.7, LC-MS in the acidic range, read-out: log P (acid)): 0.3
chromatographic logP ([3]; pH 2.7, values given in the synthesis examples and NMR lists, read-out: HPLC-MS: log P): 0.3

SMILES: Cc1cc(NC(=O)c2cccnc2)nn1Cn1nc(C)n(C)c1=O [Compound I-1-143]
efficacy in % [1]: 90%
efficacy (kill in %) [2, 4]: 100%
efficacy (kill in %) [2, 5]: 100%
log P (acid) [3]: 0.72

SMILES: Cc1cc(NC(=O)c2cccnc2)nn1Cc1ccncc1 [Compound I-1-51]
efficacy in % [1]: 90%
efficacy (kill in %) [2, 4]: 100%
efficacy (kill in %) [2, 5]: 100%
log P (acid) [3]: 0.13

SMILES: Cc1cc(NC(=O)c2cccnc2)nn1-c1ncc(C(F)(F)F)cc1Cl [Compound I-1-44]
efficacy in % [1]: 100%
efficacy (kill in %) [2, 4]: 100%
efficacy (kill in %) [2, 5]: 100%
log P (acid) [3]: 2.2

SMILES: Cn1nc(NC(=O)c2cccnc2)c2cccnc21 [Compound I-1-39]
efficacy in % [1]: 90%
efficacy (kill in %) [2, 4]: 100%
efficacy (kill in %) [2, 5]: 100%
log P (acid) [3]: 0.78

SMILES: Cc1cc(NC(=O)c2cccnc2)nn1CCF [Compound I-1-5]
efficacy in % [1]: 90%
efficacy (kill in %) [2, 4]: 100%
efficacy (kill in %) [2, 5]: 100%
log P (acid) [3]: 0.84

More lines, main results first:

log P (acid) [3]: 0.79
SMILES: COCCn1nc(NC(=O)c2cccnc2)cc1C [Compound I-1-173]
efficacy in % [1]: 100%
efficacy (kill in %) [2, 4]: 80%
efficacy (kill in %) [2, 5]: 80%

log P (acid) [3]: 0.88
SMILES: Cc1cc(NC(=O)c2cccnc2)nn1C(=O)NCc1ccccn1 [Compound I-1-329]
efficacy in % [1]: 90%
efficacy (kill in %) [2, 4]: 100%
efficacy (kill in %) [2, 5]: 100%

log P (acid) [3]: 0.81
SMILES: Cc1cc(NC(=O)c2cccnc2)nn1CC1OCCO1 [Compound I-1-180]
efficacy in % [1]: 100%
efficacy (kill in %) [2, 4]: 80%
efficacy (kill in %) [2, 5]: 100%

log P (acid) [3]: 1.54
SMILES: O=C(Nc1nn(Cc2ncccn2)c2ccccc12)c1cncc(F)c1 [Compound I-1-216]
efficacy in % [1]: 90%
efficacy (kill in %) [2, 4]: 100%
efficacy (kill in %) [2, 5]: 100%

log P (acid) [3]: 0.45
SMILES: CC[S+]([O-])Cn1nc(NC(=O)c2cccnc2)cc1C (stereo not shown) [Compound I-1-245]
efficacy in % [1]: 100%
efficacy (kill in %) [2, 4]: 100%
efficacy (kill in %) [2, 5]: 100%

log P (acid) [3]: 1.63
SMILES: Cc1cc(NC(=O)c2cccnc2)nn1C(C)C1CC1 (stereo not shown) [Compound I-1-218]
efficacy in % [1]: 100%
efficacy (kill in %) [2, 4]: 100%
efficacy (kill in %) [2, 5]: 100%

log P (acid) [3]: 1.22
SMILES: COCCNC(=O)n1nc(NC(=O)c2cccnc2)cc1C [Compound I-1-163]
efficacy in % [1]: 100%
efficacy (kill in %) [2, 4]: 100%
efficacy (kill in %) [2, 5]: 100%

log P (acid) [3]: 1.44
SMILES: COCC(C)NC(=O)n1nc(NC(=O)c2cccnc2)cc1C (stereo not shown) [Compound I-1-166]
efficacy in % [1]: 100%
efficacy (kill in %) [2, 4]: 100%
efficacy (kill in %) [2, 5]: 100%

log P (acid) [3]: 1.67
SMILES: Cc1cc(NC(=O)c2cccnc2)nn1C(=O)NC(C)(C)c1ncccn1 [Compound I-1-335]
efficacy in % [1]: 90%
efficacy (kill in %) [2, 4]: 100%
efficacy (kill in %) [2, 5]: 100%

log P (acid) [3]: 1.52
SMILES: Cc1cc(NC(=O)c2cccnc2)nn1S(=O)(=O)N(C)C [Compound I-1-231]
efficacy in % [1]: 90%
efficacy (kill in %) [2, 4]: 100%
efficacy (kill in %) [2, 5]: 100%

log P (acid) [3]: 1.79
SMILES: Cc1cc(NC(=O)c2cccnc2)nn1-c1ccc(F)cc1 [Compound I-1-203]
efficacy in % [1]: 90%
efficacy (kill in %) [2, 4]: 80%
efficacy (kill in %) [2, 5]: 100%
